Test results: patent US20240000772A1, “MICROSPHERE FORMULATIONS COMPRISING NALTREXONE AND METHODS FOR MAKING AND USING THE SAME” (Oakwood Laboratories, LLC, priority 2021, published 2024)
≈ marks a conversion by molar mass, not a printed value. Counter-ions that a name gives are not always drawn. Like-named read-outs stand apart in the source and are kept apart here.

Assays:
[1] = Solubility of naltrexone in solvents; format: physicochemical
Description: (§1) In one aspect, the naltrexone is a free base.
In another aspect, the naltrexone is an HCl salt.

pKa of naltrexone = format: physicochemical
Description: as §1

SMILES	solubility ([1]; naltrexone HCl salt, in water, read-out: water solubility)	solubility ([1]; benzyl alcohol, organic solvent or mixture, naltrexone free base, in BA, read-out: benzyl alcohol (BA) solubility)	solubility ([1]; dichloromethane, organic solvent or mixture, naltrexone free base, in DCM, read-out: dichloromethane (DCM) solubility)	solubility ([1]; ethyl acetate, organic solvent or mixture, naltrexone free base, in EA, read-out: ethyl acetate (EA) solubility)	pKa (pKa of naltrexone)
O=C1CC[C@@]2(O)[C@H]3Cc4ccc(O)c5c4[C@@]2(CCN3CC2CC2)[C@H]1O5 [naltrexone HCl salt]	~100 mg/mL	–	–	–	–
O=C1CC[C@@]2(O)[C@H]3Cc4ccc(O)c5c4[C@@]2(CCN3CC2CC2)[C@H]1O5 [naltrexone, Naltrexone]	–	> 250 mg/mL	100 mg/mL (≈ 293 mM)	26 mg/mL (≈ 76.2 mM)	8.4
